One data set addresses T1, PLK1 kinase domain (Homo sapiens, UniProt P53350).
T1 construct: made in house; host or cells: baculovirus infected T. ni cells
The data set can be described thus: Assay for inhibition of PLK1 (SPA, 33P-ATP, biotinylated peptide substrate). Format: biochemical. Particulars: 1 μM ATP, 2 nM PLK1 kinase domain; read-out: PLK1 pIC50 (converted). The procedure: I. Assay for Inhibition of PLK1
All procedures were performed at 4° C. Cells were lysed in 50 mM HEPES, 200 mM NaCl, 50 mM imidazole, 5% glycerol; pH 7.5. The homogenate was centrifuged at 14K rpm in a SLA-1500 rotor for 1 h and the supernatant filtered through a 1.2 micron filter. The supernatant was loaded onto a Nickel chelating Sepharose (Amersham Pharmacia) column and washed with lysis buffer. Protein was eluted using 20%, 30% and 100% buffer B steps where buffer B is 50 mM HEPES, 200 mM NaCl, 300 mM imidazole, 5% glycerol; pH 7.5. Fractions containing PLK were determined by SDS-PAGE. Fractions containing PLK were diluted five-fold with 50 mM HEPES, 1 mM DTT, 5% glycerol; pH 7.5, then loaded on an SP Sepharose (Amersham Pharmacia) column. After washing the column with 50 mM HEPES, 1 mM DTT, 5% glycerol; pH 7.5, PLK was step eluted with 50 mM HEPES, 1 mM DTT, 500 mM NaCl; 5% glycerol; pH 7.5. PLK was concentrated using a 10 kDa molecular weight cutoff membrane and then loaded onto a Superdex 200 gel filtration (Amersham Pharmacia) column equilibrated in 25 mM HEPES, 1 mM DTT, 500 mM NaCl, 5% glycerol; pH 7.5. Fractions containing PLK were determined by SDS-PAGE. PLK was pooled, aliquoted and stored at −80° C. Samples were quality controlled using mass spectrometry, N-terminal sequencing and amino acid analysis.
B. Enzyme activity +/− inhibitors was determined as follows: All measurements were obtained under conditions where signal production increased linearly with time and enzyme. Test compounds were added to white 384-well assay plates (0.1 μL for 10 μL and some 20 μL assays, 1 μL for some 20 μL assays) at variable known concentrations in 100% DMSO. DMSO (1-5% final, as appropriate) and EDTA (65 mM in reaction) were used as controls.
Reaction Mix (10 or 20 μL) was quickly added to each well immediately following addition of enzyme via automated liquid handlers and incubated 1-1.5 h at 22° C. The 20 μL enzymatic reactions were stopped with 50 μL of stop mix (50 mM EDTA, 4.0 mg/ml Streptavidin SPA beads in Standard Dulbecco's PBS (without Mg^2+ and Ca^2+), 50 μM ATP) per well. The 10 μL reactions were stopped with 10 μL of stop mix (50 mM EDTA, 3.0 mg/mL Streptavidin-coupled SPA Imaging Beads (“LeadSeeker”) in Standard Dulbecco's PBS (without Mg^2+ and Ca^2+), 50 μM ATP) per well. Plates were sealed with clear plastic seals, spun at 500×g for 1 min or settled overnight, and counted in Packard TopCount for 30 seconds/well (regular SPA) or imaged using a Viewlux imager (LeadSeeker SPA). Signal above background (EDTA controls) was converted to percent inhibition relative to that obtained in control (DMSO-only) wells.

The next data set concerns HCT116. Kind of data set: Methylene blue growth inhibition assay, HCT116. Conditions: Homo sapiens, HCT-116; methylene blue, 72 h, HCT116; read-out: HCT116 IC50. It is filed as cell-based. The procedure: (§1) II. Methylene Blue Growth Inhibition Assay—Inhibition of Cell Proliferation by PLK1 Inhibitors
(§2) Generally, exponentially growing cell lines of different tumor origins, cultured in appropriate media containing 10% fetal bovine serum at 37° C. in a 5% CO2 incubator were plated at low density (less than 2000 cells/well) in 96-well plates. […]. Seventy two hours post-treatment, cell numbers were determined using 100 μl per well of methylene blue (Sigma M9140) (0.5% in 50:50 Ethanol:water). Stain was incubated at room temperature for 30 minutes before plates were rinsed and dye solubilized in 1% N-lauroyl sarcosine, sodium salt, (Sigma L5125, in PBS) (further details of a methylene blue assay are described below). Plates were read on a microplate reader, measuring the OD at 620 nm.
(§3) . The data are shown in Table 1 below and represent a compilation of several different experiments, each performed using the general parameters outlined above, although minor variations may have been employed in some instances.
(§4) In one assay, normal human foreskin fibroblasts (HFF), human colon (HCT116, RKO), lung (H460, A549) and breast (MCF7) tumor cell lines were cultured in high glucose DMEM (Life Technologies) containing 10% fetal bovine serum (FBS) at 37° C. in a humidified 5% CO2, 95% air incubator. Cells were harvested using trypsin/EDTA, counted using a haemocytometer, and plated in 100 μL of culture media per well, at the following densities, in a 96-well tissue culture plate (Falcon 3075): HFF 5,000 cells/well, HCT116 3,000 cells/well, RKO 2,500 cells/well, H460 2,500 cells/well, A549 5,000 cells/well, MCF7 4,000 cells/well. The next day, compounds were diluted in low glucose DMEM containing 100 μg/mL gentamicin, at twice the final required concentration, from 10 mM stock solutions in DMSO. 100 μL/well of these dilutions were added to the 100 μL of media currently in the assay plates. Medium containing 0.6% DMSO was added to control wells. The final concentration of DMSO in all wells was 0.3%. Cells were incubated at 37° C., 5% CO2 for 72 h. Medium was removed by aspiration. Cell biomass was estimated by staining cells with 80 μL per well methylene blue (Sigma M9140, 0.5% in 50:50 ethanol:water), and incubation at room temperature for 30-60 min. Stain was removed by aspiration and the plates rinsed by immersion in water, then air-dried. To release stain from the cells, 100 μL of solubilization solution was added (1% N-lauroyl sarcosine, Sodium salt, Sigma L5125, in PBS), and plates were shaken gently for about 30 min. Optical density at 620 nm was measured on a microplate reader. Percent inhibition of cell growth was calculated relative to vehicle treated control wells. […].

The test system of another data set is H460. Kind of data set: Methylene blue growth inhibition assay, H460. It is filed as cell-based. Particulars: Homo sapiens, NCI-H460; methylene blue, 72 h, H460; read-out: H460 IC50. The procedure:
as §1, §2, §3, §4

The next data set deals with MCF7. Kind of data set: Methylene blue growth inhibition assay, MCF7. It is filed as cell-based. Conditions: Homo sapiens; methylene blue, 72 h, MCF7; read-out: MCF7 IC50. As to the method:
as §1, §2, §3, §4

Another data set deals with A549. The data set can be described thus: Methylene blue growth inhibition assay, A549. Format: cell-based. Particulars: Homo sapiens; methylene blue, 72 h, A549; read-out: A549 IC50. As to the method:
as §1, §2, §3, §4

Another data set deals with RKO. The data set can be described thus: Methylene blue growth inhibition assay, RKO. Format: cell-based. Particulars: Homo sapiens, methylene blue, 72 h, read-out: RKO IC50. As to the method:
as §1, §2, §3, §4

For data set [1], the system named is normal human foreskin fibroblasts (HFF). The data set can be described thus: Methylene blue growth inhibition assay, HFF. It is filed as cell-based. Particulars: Fibroblast, methylene blue, 72 h, HFF normal fibroblasts, read-out: HFF IC50. As to the method:
as §1, §2, §3, §4

For a further data set, the system named is human plasma proteins. The data set can be described thus: Protein binding to human plasma proteins using equilibrium dialysis. Particulars: pH 7.4, equilibrium dialysis 6 h, 37° C. Format: in vitro ADME. The procedure:
III. Determination of Protein Binding to Human Plasma Proteins Using Equilibrium Dialysis
96 Well Plate (High Throughput Dialysis): Stock solutions of compounds were spiked into human plasma at a target concentration of 2000 ng/mL. The mixture was inverted gently several times to insure homogeneity and triplicate 50 μL aliquots were collected to verify initial concentrations. Following assembly of dialysis plate (HTDialysis membrane strips, molecular weight cut off limit of 12,000-14,000 daltons), spiked plasma (150 μL) was placed in the donor compartment of the well and Phosphate Buffered Saline pH 7.4 (150 μL) in the receiver compartment. Eight wells were set up per compound and plasma type. Plate was placed in a 37° C. incubator on a plate shaker. Following the 6 h incubation period, the plate was removed. Single 50 μL aliquots from each donor and receiver compartment (per well) were analyzed. Sample analysis was by LC/MS/MS (results reported as Drug Peak Area/Internal Standard Peak Area ratios). Protein binding assay can also be performed using dialysis cells instead of HT Dialysis 96 well plates. In Table 1, % Protein Binding, +=>98%; ++=95-98%: +++=<95%.
(In general: In equilibrium dialysis only unbound substance equilibrates across the membrane.)

Data set [2] can be described thus: High throughput solubility assay. Particulars: aqueous buffer, pH 7.4, 0.05M phosphate buffer. Format: physicochemical. As to the method: IV. High Throughput Solubility Assay
Two samples are prepared for each compound. One (the standard sample) contains the compound at a fixed concentration of 20 μM in an aqueous/organic mixed solvent cocktail. The other (the test sample) contains the compound at a maximum concentration of 200 μM in pH 7.4, 0.05M phosphate buffer and shaking for 24 h. The test sample is filtered by 0.45μ filter and then spun for 10 min to remove any undissolved solid. HPLC analyses are preformed on these samples. The peak areas are used for computing solubility.

One may read the fraction unbound as the share of the substance not bound to proteins or other matrix. High values mean much free substance, low ones little free substance. The term solubility denotes the concentration that dissolves in the medium under given conditions.

T1 sequence (P53350 21-346): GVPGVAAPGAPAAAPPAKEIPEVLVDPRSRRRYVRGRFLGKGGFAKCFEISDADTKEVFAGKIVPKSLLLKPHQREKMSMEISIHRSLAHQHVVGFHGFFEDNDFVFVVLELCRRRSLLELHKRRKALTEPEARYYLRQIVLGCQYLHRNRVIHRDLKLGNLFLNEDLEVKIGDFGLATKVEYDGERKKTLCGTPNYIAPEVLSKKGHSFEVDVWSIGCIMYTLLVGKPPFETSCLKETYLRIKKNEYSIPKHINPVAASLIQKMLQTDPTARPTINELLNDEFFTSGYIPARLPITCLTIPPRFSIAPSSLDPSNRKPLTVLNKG

Regarding `NC(=O)c1sc(-n2cnc3ccc(OCC4CCNCC4)cc32)cc1OCc1ccccc1C(F)(F)F` [Com. Ex 143, reference compound], the IC50 on PLK1 kinase domain is 10 to 1000 nM; in the data set with HCT116 it was 100 to 1000 nM; in the data set with H460, over 1000 nM; with MCF7, 100 to 1000 nM; in the data set with A549, over 1000 nM; in the data set with RKO it was 100 to 1000 nM. In data set [1], the IC50 is over 1000 nM. In the data set with human plasma proteins, this compound returned a fraction unbound at 6 h, 2000 ng/mL of over 0.05. Further, the solubility at 24 h in [2] is under 30 µM.

As to `C[C@@H](Oc1cc(-n2cnc3ccc(CS(C)(=O)=O)cc32)sc1C(N)=O)c1ccccc1C(F)(F)F` [Example 1, 5-{6-[(Methylsulfonyl)methyl]-1H-benzimidazol-1-yl}-3-({(1R)-1-[2-(trifluoromethyl)phenyl]ethyl}oxy)-2-thiophenecarboxamide], the IC50 on PLK1 kinase domain is under 10 nM; in the data set on HCT116, under 100 nM; in the data set on H460, under 100 nM; in the data set on MCF7 it was under 100 nM; in the data set on A549, under 100 nM; in the data set on RKO it was under 100 nM. In addition, the IC50 in data set [1] was in the range of 100 to 1000 nM. The compound also returned a fraction unbound at 6 h, 2000 ng/mL with human plasma proteins of 0.02 to 0.05. For the same compound, in data set [2], the solubility at 24 h lay within 30 to 100 µM.

On to `C[C@@H](Oc1cc(-n2cnc3ccc(CS(C)(=O)=O)cc32)sc1C(N)=O)c1ccccc1Cl` [Example 2, 3-{[(1R)-1-(2-Chlorophenyl)ethyl]oxy}-5-{6-[(methylsulfonyl)methyl]-1H-benzimidazol-1-yl}-2-thiophenecarboxamide], for which the IC50 on PLK1 kinase domain is under 10 nM; with HCT116, under 100 nM; in the data set with H460 it was under 100 nM; in the data set on MCF7, under 100 nM; in the data set on A549, under 100 nM; with RKO, under 100 nM. Further, in data set [1], the IC50 is 100 to 1000 nM. Moreover, the fraction unbound at 6 h, 2000 ng/mL in the data set with human plasma proteins was 0.02 to 0.05. For the same compound, in data set [2], the solubility at 24 h lay in the range of 30 to 100 µM.

The values above are taken from patent US7595330B2, “Benzimidazole thiophene compounds” (SmithKline Beecham Corporation, priority 2005, dated 2009).
